`Cn1ccc(-c2ccc([N+](=O)[O-])o2)n1` yielded a melting point of 163 to 164 °C.

In the case of `CC1(C(=O)c2ccc(C(=O)O)cc2)CC1`, the melting point was in the range of 136 to 137 °C.

`COC=C(C(=O)OC)c1ccccc1` gave a melting point of 37 to 38 °C.

With `CC(C)n1c(=O)c(C(=O)NCC2CCN(CC3(O)CCOCC3)CC2)cc2c(Cl)cccc21`, the melting point is 227 °C.

`Brc1ccccc1Cc1nc(-c2ccncc2)cs1` gave a melting point of 114 to 116 °C.

For `C=C[C@@H](C[C@H](O)[C@H](CC1CCCCC1)NC(=O)[C@H](Cc1c[nH]cn1)NC(=O)[C@@H](CC(=O)N1CCC(C(=O)OCC)CC1)Cc1ccccc1)C(C)C`, the melting point was 103 °C.

As for `O=C(O)c1cccc(CN2CCC(N3C(=O)Nc4ccccc4C3c3ccccc3)CC2)c1` (stereo not drawn), the melting point was more than 250 °C.

For the compound `NC(=NO)c1nc(Cl)c(-c2c(F)cccc2Cl)c(Cl)c1Br`, the melting point was found to be 132 °C.

As for `COc1cc(C=C2COCC(=Cc3cc(OC)c(OC)c(OC)c3)C2=O)cc(OC)c1OC`, the melting point was in the range of 187 to 189 °C.

`NNc1c(F)c(F)c(C(F)(F)F)c(F)c1Cl` gave a melting point of 91 to 92 °C.

Consider `CCOC(=O)c1cc2n(C)c3ccc(C)cc3c(=O)n2n1`, for which the melting point fell in the range of 250 to 252 °C.

Regarding `Cc1ccc(CCC(C)(C)NCC(O)c2cc3ccccc3o2)cc1` (stereo not drawn), the melting point lay in the range of 121 to 122 °C.

Compound `CC(C)c1nn(-c2nc3ccccc3s2)c(-c2ccc(F)cc2)c1Br` displayed a melting point of 146 to 147 °C.

Compound `CCOC(=O)C1(Cc2cccc(C)c2Br)CN(Cc2ccccc2)CCC1=O` (stereo not drawn) showed a melting point of 60 to 61 °C.

With `COc1ccnc(CCc2nc3cc(-c4ccc(N)cc4)cnc3[nH]2)c1`, the melting point lay in the range of 117 to 119 °C.

`COC[C@H](C)Oc1cc(N(C)S(=O)(=O)c2ccccn2)c2[nH]c(C3=NCC(CN4CCS(=O)CC4)S3)cc2c1` (stereo partly drawn) returned a melting point of 175 to 176 °C.

`CNC(=NC#N)Nc1ccc(C2=NNC(=O)CC2C)cc1` (stereo not drawn) registered a melting point of 235 °C.

Turning to `CCCCCCC(=O)CC(C)=O`, the melting point was in the range of 105 to 106 °C.

`CCC(C(=O)C(C)C(O)C(C)CCc1ccc(C)c(O)c1C(=O)O)C1OC(CC)(C2CCC(O)(CC)C(C)O2)CC1C` (stereo not drawn) displayed a melting point of 250 °C.

`COc1cc(N)c(Cl)cc1C(=O)NCC12CCCN(CC1)C2` (stereo not drawn) returned a melting point of 185 to 187 °C.

The compound `COc1cccc2c1C=C(C(=O)O)C(CC(F)(F)F)O2` (stereo not drawn) gave a melting point of 204 to 207 °C.

Compound `CCC(Cn1cncn1)(C(N)=O)c1ccc(Cl)cc1Cl` (stereo not drawn) registered a melting point of 164 to 165 °C.

`COc1cccc2c1C1(COc3cc4c(cc31)OCO4)C(=O)N2Cc1ccc(C(F)(F)F)o1` (stereo not drawn) displayed a melting point of 149 to 153 °C.

As for `Cc1cccc2[nH]c(C(=O)OC(C)C)c(Sc3ccc(Cl)cc3)c12`, the melting point was 190 to 192 °C.

`CCC(C)(C)c1ccc(OCCCCNC(=O)c2cc(Sc3nnnn3-c3ccccc3)c3ccccc3c2O)c(C(C)(C)CC)c1` gave a melting point of 147 to 148 °C.

`C=CCON=C(C(=O)OCC)c1csc(NC(c2ccccc2)(c2ccccc2)c2ccccc2)n1`: the melting point fell in the range of 130 to 132 °C.

The compound `O[C@H](COc1ccccc1C=Cc1nc2ccccc2s1)CN1CCC(c2ccc3ccccc3c2)CC1` came in with a melting point of 125 to 127 °C.

Consider `Cc1c(C#N)cc(C(C)(C)C)c(O)c1C(=O)Nc1ccc(Sc2ccc(Cl)cc2)cc1C(F)(F)F`, for which the melting point was in the range of 193 to 195 °C.

For `Cc1c(CON2C(=O)c3ccccc3C2=O)ncn1C(c1ccccc1)(c1ccccc1)c1ccccc1`, the melting point was 220 to 223 °C.

`Cc1occc1C(=O)N(O)C1CCCCC1` yielded a melting point of 108 to 110 °C.

Compound `COc1cc(C(=O)C=Cc2cc(-c3cccs3)ccc2OC)ccc1O` displayed a melting point of 142 to 144 °C.

`COc1ccc(S(=O)(=O)Nc2c(/C=C/c3ccncc3)cccc2OC)cc1`: the melting point was 205 to 206 °C.

Turning to `CCOC(=O)CCCCn1c(C)cn(N=Cc2cccnc2)c1=O`, the melting point lay in the range of 74 to 76 °C.

Consider `O=C(OCC1CC1)c1ncn2c1[C@@H]1CCN1C(=O)c1c(Br)cccc1-2`, for which the melting point was 212 to 213 °C.

`CC(=O)c1c(O)cccc1OCC(O)COc1ccc(Cl)cc1Cl` (stereo not drawn) displayed a melting point of 130 to 132 °C.

`O=[N+]([O-])c1cccc(Oc2ccc(-c3ccccc3)cc2)c1` registered a melting point of 97.6 to 98.8 °C.

`CNS(=O)(=O)c1ccc(-c2cnc3[nH]c(CCc4cc(OC)ccn4)nc3c2)cc1` displayed a melting point of 225 to 227 °C.

For the compound `COc1ccc([N+](=O)[O-])c2c1oc1ccccc12`, the melting point lay in the range of 155 to 156 °C.

`COCc1nc(C)c2c(n1)N(Cc1ccc(Br)cc1)C(=O)CC2` gave a melting point of 64 to 66 °C.

`CCN(CC)CCNC(=O)c1cc(Cl)c(N)cc1OC1CCCCC1=O` (stereo not drawn): the melting point fell in the range of 96 to 99 °C.

With `O=C1Nc2ccc(S(=O)(=O)N3CCC[C@H]3CN3CCOCC3)cc2C1=O`, the melting point is 163 to 164 °C.

`O=C1C(Cl)=CC(=NS(=O)(=O)c2cccs2)c2ccccc21` displayed a melting point of 167 to 169 °C.

`Cc1oc(-c2ccco2)nc1CCOc1ccc(C#N)cc1` gave a melting point of 105 to 108 °C.

As to `Cc1nc2cccc(OC3CCCCC3)c2c(N)c1C(=O)O`, the melting point is 220 to 222 °C.

`Cc1cccc(-c2n[nH]cc2-c2ccc(F)c(-c3ccc(CN4CCOCC4)cn3)c2)n1`: the melting point was in the range of 68 to 70 °C.

Turning to `O=C(O)c1ccc(-n2cnnc2S)cc1`, the melting point is more than 300 °C.

The compound `CCCc1nc2c(N)nc3cccnc3c2n1CCCC(=O)N1CCOCC1` returned a melting point of 196 to 197 °C.

On to `CCC(=O)OCC(=O)OC1C(CC)CC2C3CCC4=CC(=O)CCC4C3CCC21C` (stereo not drawn), for which the melting point was 101 to 104 °C.

Consider `CCOC(=O)C(C)(C)NC(=O)C(Br)c1ccccc1` (stereo not drawn), for which the melting point was in the range of 81 to 83 °C.

`CCc1noc(C)c1-c1[nH]c2ccccc2c1C(C)=O` showed a melting point of 170 to 173 °C.

`OCCCc1ccc(OCc2ccco2)cc1Oc1ncc(C(F)(F)F)cc1Cl` returned a melting point of 68 to 68.6 °C.

As to `COc1cc2nc(N3CCN(c4nc5cccccc-5n4)CC3)nc(N)c2cc1OC`, the melting point was 189 to 193 °C.

As for `COCC(=O)NCC1CCC(Nc2nc3c(s2)CCCc2ccc(F)cc2-3)CC1` (stereo not drawn), the melting point was in the range of 63 to 65 °C.

For `Cc1cc(C)n(C(c2ccccc2)(c2ccccc2)c2ccccc2Cl)n1`, the melting point was 195 to 197 °C.

Compound `CCCCS(=O)(=O)Nc1ccc(Oc2cc(C)cc3cccnc23)cc1` showed a melting point of 189 to 190 °C.

In the case of `Cn1cnc(S(=O)(=O)N2CCC3(CC2)CSC2=C(O3)c3ccccc3C(=O)C2=O)c1`, the melting point fell in the range of 256 to 257 °C.

`CSc1ccc(Nc2cc(-c3nnc(C)o3)ccn2)cc1` had a melting point of 203 to 204 °C.

In turn, `CCOCc1nc2c(N)nc3ccccc3c2n1Cc1ccccc1` displayed a melting point of 204 to 205 °C.

`CCN(CC)c1ccc2c(c1)Oc1cc(OC(C)=O)c3ccccc3c1N2C(C)=O` came in with a melting point of 64 to 72 °C.

Compound `COc1c(F)c(F)c(C(=O)c2ccc(Br)cc2)c(F)c1F` displayed a melting point of 80 to 82 °C.

With `CC(C)(C)OC(=O)NCCc1ccc(OCCC2Oc3ccccc3N(Cc3cccc(Cl)c3)C2=O)cc1` (stereo not drawn), the melting point fell in the range of 91 to 92 °C.

The compound `CCOC(=O)c1c(Nc2cccc3ccccc23)n[nH]c1C` showed a melting point of 199 to 202 °C.

In turn, `CC(C)OC(=O)N1CCC(c2nc3cc(-c4ccc(C(N)=O)cc4F)ccc3o2)CC1` showed a melting point of 194 to 197 °C.

As to `CNCCc1c(C)[nH]c2ccc(S(=O)(=O)c3ccccc3)cc12`, the melting point was in the range of 165 to 166 °C.

Consider `Cc1ccc(NS(=O)(=O)c2ccccc2)cc1N`, for which the melting point fell in the range of 142 to 144 °C.

In turn, `Cc1ccc(-c2ccccc2C(=O)Nc2ccc(C(=O)N3CCc4sc(NC(=N)N)nc4-c4ccccc43)cc2)cc1` showed a melting point of more than 230 °C.

As to `CCOC(=O)c1c(C)nn2c(-c3ccc(Cl)cc3Cl)c(C)ccc12`, the melting point was in the range of 120 to 124 °C.

Compound `CC(C(=O)O)c1ccc(-c2ccccc2F)c(F)c1` (stereo not drawn) gave a melting point of 120 to 123 °C.

`COCCOc1ccc2cc3ccccc3cc2c1` yielded a melting point of 131 to 134 °C.

Turning to `C#CCOc1ccc(-c2nc3ccccc3o2)cc1`, the melting point is 124 to 127 °C.

`CCOC(=O)c1cnc(C)nc1NCc1ccc(-c2ccccc2-c2nnnn2C(c2ccccc2)(c2ccccc2)c2ccccc2)cc1` returned a melting point of 155 to 156 °C.

As to `CN(CC(O)c1ccc(Br)cc1)C(=O)OC(C)(C)C` (stereo not drawn), the melting point was 80 to 82 °C.

Regarding `CSc1cc2ncnc(Nc3cccc(C)c3)c2cc1[N+](=O)[O-]`, the melting point fell in the range of 230 to 231 °C.

In the case of `CC(=O)c1cc(NC(=O)OC(C)(C)C)ccc1O`, the melting point lay within 107 to 108 °C.

The compound `CC(C)(C)C(=O)c1c[nH]c2ncc(-c3ccc(N4CCN(S(C)(=O)=O)CC4)cc3)nc12` yielded a melting point of 288 to 290 °C.

Regarding `CCOC(=O)C(=Cc1cccc(OC)c1)C(=O)OCC`, the melting point is 45 °C.

`N#Cc1ccc(F)cc1C(F)(F)C(F)(F)c1ccccc1` had a melting point of 68 to 70 °C.

As for `CC(=O)OC1COC(Br)C(OC(C)=O)C1OC(C)=O` (stereo not drawn), the melting point was 92 °C.

As to `CCCCCCCCCCCC(=O)c1ccc(/C=C/C(=O)OCC)o1`, the melting point lay in the range of 50 to 51 °C.

Consider `CSc1ccc2ccc3c(SC)cc(SC)c4ccc1c2c34`, for which the melting point lay in the range of 235 to 240 °C.

Take `CC(C)(C)OC(=O)C=Cc1ccc2ccccc2n1`: the melting point was 96 to 97 °C.

Take `Cc1nn(C)c(C#N)c1NC=O`: the melting point is 135 °C.

As for `CCOc1ccc2ccc(F)c(F)c2c1F`, the melting point was in the range of 96.5 to 98.5 °C.

In turn, `C[C@H](Cc1ccc2c(c1)OC(C(=O)O)(C(=O)OCCc1ccccc1)O2)NC[C@H](O)c1cccc(Cl)c1` (stereo partly drawn) came in with a melting point of 75 to 82 °C.

For `COC(OC)[C@@H]1CCCN1C(=O)[C@@H]1CCCN1C(=O)C[C@H]1CCc2ccccc2C1`, the melting point lay within 103 to 106 °C.

`Oc1cc(Cl)cc2c1CCC2` had a melting point of 56 to 59 °C.

For `Cc1nc2ccc(N(C)C)nn2c1S(N)(=O)=O`, the melting point was determined as 227 °C.

Compound `Brc1ccc2nc(-c3ccccc3)nn2c1` displayed a melting point of 146 °C.

(Values after a melting point compilation (Tetko et al.; mined from patent text by program, amines drawn as free bases though some values may be those of a salt).)
